According to the supplement of paper PMC11208160:

Assay: recombinant barcode read abundance after kanamycin selection (control-corrected) (log10(CPM+1)); higher = more efficient recombination; sequences stand for … in AGTGCAGAGAAAATCGGCCAGTTTTCTCTGCCTGCAGTCCGCATGCCGT…AGATTTATGCAGCGGACTGCCTTTCTCCCAAAGTGATAAACCGGACAGTATCATGGACCGGTTTTCCCGGTAATCCGTATTTGCAAGGTTGGTTTCACT; site = the 11-nt target
In short: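 Recombination efficiency draws on barcodes counted at recombinant junctions in a pooled E. coli screen of targets paired with IS621 bridge RNA target-binding loops. The counts were converted to counts per million, averaged and corrected against the chloramphenicol/ampicillin LB agar control, then reported as log10(CPM+1). Selection plates held chloramphenicol/ampicillin/kanamycin with 0.1 mM IPTG, with two replicates per condition.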
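Note: IS621 recombinase and bridge RNA in Escherichia coli cells.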

Row | Sequence | recombinant barcode read abundance (log10)
1 | TAGCTAGCTTGGGTTCTAACCTGTTGCGT (site TAGCTAGCTAC) | 1.62
2 | CGAGGGTCTTGGGTTCTAACCTGTTGCTT (site AGAGGGTCTAA) | 0.172
3 | TACTATGCTTGGGTTCTAACCTGTTGCGA (site TACTATGCTTC) | 0.41
4 | CTAAATCCTTGGGTTCTAACCTGTTGCAT (site CTAATTCCTAT) | 0.232
5 | AATACTACTTGGGTTCTAACCTGTTGCCT (site ATTACTACTAG) | 0
6 | CAGTTAGCTTGGGTTCTAACCTGTTGCCT (site CAGTTTGCTAG) | 0.192
7 | GGGTCGGCTTGGGTTCTAACCTGTTGCTG (site GTCTCGGCTCA) | 0.0584
8 | AGCCGTACTTGGGTTCTAACCTGTTGCCT (site AGACGTACTAG) | 0.129
9 | AGATCCACTTGGGTTCTAACCTGTTGCCT (site CGATCCACTAG) | 0.0967
10 | GCTCATACTTGGGTTCTAACCTGTTGCCT (site GCTCATACTAG) | 0.714
11 | GTGTACCCTTGGGTTCTAACCTGTTGCGT (site GTGTACCCTCC) | 1.66
12 | CTCCTAGCTTGGGTTCTAACCTGTTGCTT (site CTCCTAGCTAA) | 0.277
13 | TTCCTATCTTGGGTTCTAACCTGTTGCCT (site TGCCTATCTAG) | 0.0749
14 | TTAGTACCTTGGGTTCTAACCTGTTGCCT (site TTAGTGCCTAG) | 0.135
15 | CTACTAACTTGGGTTCTAACCTGTTGCCT (site CTACTAACTAC) | 0.0952
16 | CCTTGGACTTGGGTTCTAACCTGTTGCCT (site CCTTGCTCTAG) | 0.084
17 | GCCCAGCCTTGGGTTCTAACCTGTTGCGG (site GCCCAGCCTCC) | 2.71
18 | CATAGATCTTGGGTTCTAACCTGTTGCTT (site CAAAGATCTAA) | 0.271
19 | CTATAGACTTGGGTTCTAACCTGTTGCCT (site CTATAGACTAG) | 1.11
20 | TAAGGAGCTTGGGTTCTAACCTGTTGCCT (site TAGGGCGCTAG) | 0.0289
21 | TCAAAGGCTTGGGTTCTAACCTGTTGCCT (site TCAAAGGCTAG) | 0.0805
22 | CACGCGCCTTGGGTTCTAACCTGTTGCGG (site GCTCATACTAG) | 0.00629

Row | Sequence | recombinant barcode read abundance (log10)
23 | CTTCGTCCTTGGGTTCTAACCTGTTGCTT (site CTTCGTCCTAA) | 0.206
24 | CTACCAACTTGGGTTCTAACCTGTTGCCT (site CTACCAACTAG) | 0.41
25 | CTAATTACTTGGGTTCTAACCTGTTGCCT (site CTATTTACTAG) | 0.196
26 | TCCAACACTTGGGTTCTAACCTGTTGCCG (site TCCAATACTCG) | 0.24
27 | TCGAGTGCTTGGGTTCTAACCTGTTGCCT (site TCGAGTTCTAG) | 0
28 | CACGTTACTTGGGTTCTAACCTGTTGCCT (site CACGTTACTAG) | 0.628
29 | TATTCTACTTGGGTTCTAACCTGTTGCGA (site TATTCTACTAC) | 0.0359
30 | CGGCCGACTTGGGTTCTAACCTGTTGCGG (site CGGGCGCCTCC) | 0.184
31 | AAGAACTCTTGGGTTCTAACCTGTTGCCA (site AAGAACTCTTG) | 1.11
32 | TATCGCACTTGGGTTCTAACCTGTTGCCT (site TATCGCACTAG) | 0.0277
33 | ACGGGCTCTTGGGTTCTAACCTGTTGCTC (site ACGGGCTCTGA) | 1.53
34 | TCTACCTCTTGGGTTCTAACCTGTTGCCT (site TCTACGTCTAG) | 0.102
35 | TAAAATACTTGGGTTCTAACCTGTTGCCT (site TAAAATACTAG) | 0.1
36 | CTGCAAGCTTGGGTTCTAACCTGTTGCCT (site CTTCAAGCTAG) | 0.854
37 | ACAGGCGCTTGGGTTCTAACCTGTTGCCT (site ACAGCCGCTAG) | 0.617
38 | ACCAAGTCTTGGGTTCTAACCTGTTGCGT (site ACCAAGTCTAC) | 1.98
39 | TCCTGGGCTTGGGTTCTAACCTGTTGCCG (site TCCTGGGCTCG) | 0.0509
40 | AAGCAATCTTGGGTTCTAACCTGTTGCCT (site AAGCACTCTAG) | 0.159
41 | TAGGTGCCTTGGGTTCTAACCTGTTGCGG (site TAGGTGCCTCC) | 2.99
42 | TTAGGGGCTTGGGTTCTAACCTGTTGCCT (site TTAGGGTCTAG) | 0.0155
43 | TACCTGACTTGGGTTCTAACCTGTTGCCT (site TACCGGACTAG) | 0.106
44 | CACTGCTCTTGGGTTCTAACCTGTTGCCT (site CACTGATCTAG) | 0.2

Row | Sequence | recombinant barcode read abundance (log10)
45 | TCCTGTACTTGGGTTCTAACCTGTTGCAT (site TCCGGTACTAT) | 0.00868
46 | GTACGTACTTGGGTTCTAACCTGTTGCCT (site ATACGTACTAG) | 0.0704
47 | CAGCAGCCTTGGGTTCTAACCTGTTGCTT (site CAGCAGCCTAA) | 0.742
48 | CTACCATCTTGGGTTCTAACCTGTTGCCG (site CTACCGTCTCC) | 0.157
49 | ACTAGGACTTGGGTTCTAACCTGTTGCGT (site ACTAGGACTTC) | 0.26
50 | GATGTACCTTGGGTTCTAACCTGTTGCCT (site GATGTACCTAG) | 1.7
51 | GGTGCGTCTTGGGTTCTAACCTGTTGCCT (site GGTGCGTCTAG) | 1.57
52 | AATTCAGCTTGGGTTCTAACCTGTTGCCT (site AATTCAGCTAG) | 0.26
53 | CGAGGGTCTTGGGTTCTAACCTGTTGCCT (site CGAGGGTCTAG) | 1.87
54 | CTAAGCTCTTGGGTTCTAACCTGTTGCTG (site CTAAGCTCTCA) | 1.25
55 | TCGCGTACTTGGGTTCTAACCTGTTGCAT (site TCGCGTACTAT) | 0.189
56 | CAAAGGGCTTGGGTTCTAACCTGTTGCAG (site CAAAGGGCTCT) | 2.29
57 | CGGCCCTCTTGGGTTCTAACCTGTTGCCT (site CGGCCCTCTAG) | 2.52
58 | CGTCCTTCTTGGGTTCTAACCTGTTGCCT (site AGTCCTTCTAT) | 0.351
59 | AGGTCCTCTTGGGTTCTAACCTGTTGCTT (site AGGTCCTCTAA) | 1.13
60 | GAGGTAACTTGGGTTCTAACCTGTTGCCT (site GACGTAACTAG) | 1.23
61 | TAAGGTCCTTGGGTTCTAACCTGTTGCAG (site TAGGGTCCTCC) | 0.158
62 | TATGTAGCTTGGGTTCTAACCTGTTGCCG (site TATGTAGCTGG) | 0.107
63 | GTGATGTCTTGGGTTCTAACCTGTTGCCT (site GTGATGTCTAG) | 2.17
64 | GTACGTCCTTGGGTTCTAACCTGTTGCGT (site GTACGTCCTAA) | 0.0527
65 | CCACTGTCTTGGGTTCTAACCTGTTGCCT (site CCACGGTCTAG) | 0.0729
66 | ACTAACACTTGGGTTCTAACCTGTTGCCT (site TCTAACACTAG) | 0.546

Row | Sequence | recombinant barcode read abundance (log10)
67 | CAATCCTCTTGGGTTCTAACCTGTTGCTT (site CCATCCTCTAA) | 0
68 | TGAGATGCTTGGGTTCTAACCTGTTGCCT (site TGACATGCTAG) | 0.026
69 | TCGAATCCTTGGGTTCTAACCTGTTGCCT (site TCGAAACCTAG) | 0.0251
70 | CGATTATCTTGGGTTCTAACCTGTTGCCT (site CGATTAGCTAG) | 0.0752
71 | GGGGATCCTTGGGTTCTAACCTGTTGCGA (site GGGGAGCCTCC) | 0.00823
72 | GCCTCGGCTTGGGTTCTAACCTGTTGCCT (site GCATCGGCTAG) | 0.0156
73 | GTACGTACTTGGGTTCTAACCTGTTGCCT (site GTACGTACTAG) | 0.586
74 | ACCTTAACTTGGGTTCTAACCTGTTGCCT (site ACCTTAACTAG) | 0.166
75 | TACCTAGCTTGGGTTCTAACCTGTTGCGT (site TACCTAGCTAC) | 1.3
76 | ACAAGAGCTTGGGTTCTAACCTGTTGCCT (site ACGAGAGCTAG) | 0.0837
77 | GATCGATCTTGGGTTCTAACCTGTTGCAT (site GATCGATCTAC) | 0.163
78 | AATGCATCTTGGGTTCTAACCTGTTGCCT (site AATGGATCTAG) | 0.054
79 | GTAATTGCTTGGGTTCTAACCTGTTGCCT (site GTAAATGCTAG) | 0.184
80 | GGCCGAACTTGGGTTCTAACCTGTTGCCT (site TGCCGAACTAG) | 0.144
81 | GATCGATCTTGGGTTCTAACCTGTTGCAT (site GATCGATCTAA) | 0.0308
82 | CTCCATACTTGGGTTCTAACCTGTTGCCT (site CTCCATCCTAG) | 0.0983
83 | CACGGGGCTTGGGTTCTAACCTGTTGCCT (site CACGGGGCTAG) | 0.697
84 | CACAGGGCTTGGGTTCTAACCTGTTGCGG (site CACATGGCTCG) | 0.344
85 | ACAGGCGCTTGGGTTCTAACCTGTTGCCT (site ACAGGCGCTAG) | 0.673
86 | GGCACGGCTTGGGTTCTAACCTGTTGCCT (site GGCACGGCTAG) | 0.134
